Experimental data reported in PMC3859608, “C-Terminus of the B-Chain of Relaxin-3 Is Important for Receptor Activity” (PLoS ONE, 2013).
No end group written: not given here.

T1: RXFP3 (Homo sapiens, UniProt Q9NSD7)
T1 construct: expressed in transfected cells
T1 sequence (Q9NSD7 1-469): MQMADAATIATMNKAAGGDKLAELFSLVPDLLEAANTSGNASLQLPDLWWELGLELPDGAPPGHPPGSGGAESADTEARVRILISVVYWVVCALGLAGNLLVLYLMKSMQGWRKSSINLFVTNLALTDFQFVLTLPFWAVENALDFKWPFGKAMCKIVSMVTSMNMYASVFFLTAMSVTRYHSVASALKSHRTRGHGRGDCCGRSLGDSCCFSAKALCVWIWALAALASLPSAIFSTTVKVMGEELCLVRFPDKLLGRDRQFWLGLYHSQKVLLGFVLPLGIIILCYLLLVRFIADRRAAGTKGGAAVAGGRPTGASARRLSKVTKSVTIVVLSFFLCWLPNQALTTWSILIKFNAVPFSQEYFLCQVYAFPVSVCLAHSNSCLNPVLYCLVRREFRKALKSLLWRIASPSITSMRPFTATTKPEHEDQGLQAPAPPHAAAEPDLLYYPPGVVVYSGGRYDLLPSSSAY

B1: INSL3: relaxin family peptide (peptide, UniProt P51460 21-55; P51460 106-131, looked up)
Insulin-like 3 B chain: LGPAPTPEMREKLCGHHFVRALVRVCGGPRWSTEA
Insulin-like 3 A chain: AAATNPARYCCLSGCTQQDLLTLCPY
modifications: not fully specified (bridges); ends and bridges not checked
notes: relaxin family peptide

Tests used:
RXFP3 [1] = biological target: T1, RXFP3; assay: cAMP activity (inhibition of forskolin-induced cAMP), CHO-K1 cells expressing RXFP3; type: cell-based; conditions: CHO-K1 RXFP3, pCRE-β-galactosidase reporter; forskolin 1 µM (method) / 5 µM (Fig. 2 legend); peptide 0.01 nM – 1 µM; mean ± SEM, n = 3, triplicate determinations; ** p<0.01 vs H3 acid (H3 amide, H3 A-acid); read-out: RXFP3 cAMP pEC50 (converted)
Experimental: (§1) The ability of the peptides to activate the receptors RXFP3/RXFP4 was assessed by measuring their influence on cAMP signalling in CHO-K1 cells stably expressing RXFP3 or RXFP4 transfected with a pCRE-β-galactosidase reporter gene construct as previously described. A single concentration of forskolin was used to stimulate cAMP signalling in cells expressing RXFP3 (1 µM) and RXFP4 (5 µM) and peptide induced inhibition of cAMP signalling was measured by adding increasing concentrations of the peptides (0.01 nM – 1 µM). The ability of the peptides to inhibit forskolin-induced cAMP response (pEC50) was measured and expressed as mean ± SEM from three independent experiments with triplicate determinations within each assay. The inhibition curves were fitted to a single-site sigmoidal dose-response curve with variable slope using Graphpad PRISM 5.
(§2) Figure 2 Receptor binding affinity (pKi) and cAMP activity (pEC-50) curves of H3 relaxin and its variants at RXFP3. A) Competition binding curves of H3 relaxin variants using a single concentration of Eu-I5/R3 (0.5 nM) in the presence of increasing concentrations of the H3 relaxin peptides. B) RXFP3 activation curves of H3 relaxin variants measured in a cAMP activity assay in the presence of 5 µM forskolin. The data were expressed as mean ± SEM. from at least three independent experiments.

RXFP4 [2] = biological target: T2, RXFP4 (Homo sapiens, UniProt Q8TDU9); assay: cAMP activity (inhibition of forskolin-induced cAMP), CHO-K1 cells expressing RXFP4; type: cell-based; conditions: CHO-K1 RXFP4, pCRE-β-galactosidase reporter; forskolin 5 µM (method) / 1 µM (Fig. 3 legend); peptide 0.01 nM – 1 µM; mean ± SEM, n = 3, triplicate determinations; vs H3 acid: * H3 amide, ** p<0.01 H3 A-acid; read-out: RXFP4 cAMP pEC50 (converted)
T2 construct: expressed in transfected cells
Experimental: as §1
(§3) Figure 3 Receptor binding affinity (pKi) and cAMP activity (pEC-50) curves of H3 relaxin and its variants at RXFP4. A) Competition binding curves of H3 relaxin variants at RXFP4 using a single concentration of Eu-INSL5 (2.5 nM) in the presence of increasing concentrations of the H3 relaxin peptides. B) RXFP4 activation curves of H3 relaxin variants measured in a cAMP activity assays in the presence of 1 µM forskolin. The data were expressed as mean ± SEM from at least three independent experiments.

RXFP4 [3] = biological target: T2, RXFP4; assay: Competition binding, Eu-labelled mouse INSL5, CHO-K1 cells expressing RXFP4; conditions: CHO-K1 cells stably expressing RXFP4; Eu-labelled mouse INSL5 2.5 nM; one site competition fit; mean ± SEM, n = 3, triplicate determinations; vs H3 acid: * H3 amide, ** p<0.01 H3 A-acid; read-out: RXFP4 Eu-INSL5 pKi (converted)
Experimental: (§4) The receptor binding affinity of the peptides was measured using CHO-K1 cells stably expressing RXFP3 and RXFP4. The competition binding assays were carried out as previously described, [27]. Briefly, a single concentration of Eu-labelled I5/R3 (0.5 nM) or Eu-labelled mouse INSL5 (2.5 nM) were used in presence of increasing concentration of peptides. The data were analyzed using GraphPad PRISM 5 (GraphPad Inc., San Diego, USA). The europium binding curves were fitted to a one site competition curve and the pKi values were expressed as the mean ± SEM of at least three independent experiments with triplicate determinations within each assay.
as §3

RXFP3 [4] = biological target: T1, RXFP3; assay: Competition binding, Eu-labelled I5/R3, CHO-K1 cells expressing RXFP3; conditions: CHO-K1 cells stably expressing RXFP3; Eu-I5/R3 0.5 nM; one site competition fit; mean ± SEM, n in parentheses in cell (3; H3 amide 4), triplicate determinations; ** p<0.01 vs H3 acid (H3 amide, H3 A-acid); read-out: RXFP3 Eu-H3/I5 pKi (converted)
Experimental: as §4, §2

[5] = cited from earlier work; for activity by C-terminal form: C-terminal amide vs acid
Text: The bioactivity of many polypeptide hormones often requires a form of post-translational modification of their precursors. An example of a widespread modification is C-terminal amidation which often leads to an increase in bioactivity of peptides [32]–[35]. In some cases, amidation of the C-terminus has been reported to have detrimental effect on the activity of peptides, [36]. […] In the case of relaxin family peptides, H2 relaxin and INSL3, both p ...

T2 sequence (Q8TDU9 whole entry, species assumed): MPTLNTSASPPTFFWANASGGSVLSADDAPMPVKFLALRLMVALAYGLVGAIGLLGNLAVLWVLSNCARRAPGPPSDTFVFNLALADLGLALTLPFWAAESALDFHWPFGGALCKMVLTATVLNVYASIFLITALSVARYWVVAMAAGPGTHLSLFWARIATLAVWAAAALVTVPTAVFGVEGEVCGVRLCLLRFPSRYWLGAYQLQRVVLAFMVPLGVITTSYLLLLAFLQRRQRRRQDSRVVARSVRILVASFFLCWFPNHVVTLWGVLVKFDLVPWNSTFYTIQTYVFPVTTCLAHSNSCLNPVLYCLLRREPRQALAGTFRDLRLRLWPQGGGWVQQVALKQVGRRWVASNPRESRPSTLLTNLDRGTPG

Molecule | EC50 (RXFP3 [1]) [nM] | EC50 (RXFP4 [2]) [nM] | Ki (RXFP4 [3]) [nM] | Ki (RXFP3 [4]) [nM] | activity by C-terminal form [5] | activity of acid vs amide form [5]
CC[C@H](C)[C@@H]1NC(=O)[C@H](Cc2ccccc2)NC(=O)[C@H](CCC(=O)O)NC(=O)[C@H](CCCNC(=N)N)NC(=O)CNC(=O)[C@@H](NC(=O)[C@H](CC(C)C)NC(=O)[C@H](CCCNC(=N)N)NC(=O)[C@@H](NC(=O)CNC(=O)[C@H](Cc2ccc(O)cc2)NC(=O)[C@@H]2CCCN2C(=O)[C@H](C)NC(=O)[C@H](C)NC(=O)[C@@H](N)CCCNC(=N)N)C(C)C)CSSC[C@@H]2NC(=O)[C@@H](NC(=O)[C@H](CO)NC(=O)[C@H](CO)NC(=O)[C@H](CO)NC(=O)[C@H](CC(C)C)NC(=O)CNC(=O)[C@H](C)NC(=O)[C@H](CC(C)C)NC(=O)[C@@H](NC(=O)[C@@H](N)CC(=O)O)C(C)C)CSSC[C@H](NC(=O)CNC(=O)[C@H](Cc3c[nH]c4ccccc34)NC(=O)[C@H](CCCCN)NC2=O)C(=O)N[C@@H](CO)C(=O)N[C@@H](CCCCN)C(=O)N[C@@H](CO)C(=O)N[C@@H](CCC(=O)O)C(=O)N[C@@H]([C@@H](C)CC)C(=O)N[C@@H](CO)C(=O)N[C@@H](CO)C(=O)N[C@@H](CC(C)C)C(=O)N[C@H](C(=O)O)CSSC[C@@H](C(=O)NCC(=O)NCC(=O)N[C@@H](CO)C(=O)N[C@@H](CCCNC(=N)N)C(=O)N[C@@H](Cc2c[nH]c3ccccc23)C(N)=O)NC(=O)[C@H]([C@@H](C)O)NC(=O)[C@H](Cc2ccccc2)NC(=O)[C@H]([C@@H](C)CC)NC(=O)[C@H](C(C)C)NC(=O)[C@H](C)NC(=O)[C@H](CCCNC(=N)N)NC1=O [H3 A-acid] | 4.9 | 34.7 | 117 | 151 |  | 
CC[C@H](C)[C@@H]1NC(=O)[C@H](Cc2ccccc2)NC(=O)[C@H](CCC(=O)O)NC(=O)[C@H](CCCNC(=N)N)NC(=O)CNC(=O)[C@@H](NC(=O)[C@H](CC(C)C)NC(=O)[C@H](CCCNC(=N)N)NC(=O)[C@@H](NC(=O)CNC(=O)[C@H](Cc2ccc(O)cc2)NC(=O)[C@@H]2CCCN2C(=O)[C@H](C)NC(=O)[C@H](C)NC(=O)[C@@H](N)CCCNC(=N)N)C(C)C)CSSC[C@@H]2NC(=O)[C@@H](NC(=O)[C@H](CO)NC(=O)[C@H](CO)NC(=O)[C@H](CO)NC(=O)[C@H](CC(C)C)NC(=O)CNC(=O)[C@H](C)NC(=O)[C@H](CC(C)C)NC(=O)[C@@H](NC(=O)[C@@H](N)CC(=O)O)C(C)C)CSSC[C@H](NC(=O)CNC(=O)[C@H](Cc3c[nH]c4ccccc34)NC(=O)[C@H](CCCCN)NC2=O)C(=O)N[C@@H](CO)C(=O)N[C@@H](CCCCN)C(=O)N[C@@H](CO)C(=O)N[C@@H](CCC(=O)O)C(=O)N[C@@H]([C@@H](C)CC)C(=O)N[C@@H](CO)C(=O)N[C@@H](CO)C(=O)N[C@@H](CC(C)C)C(=O)N[C@H](C(N)=O)CSSC[C@@H](C(=O)NCC(=O)NCC(=O)N[C@@H](CO)C(=O)N[C@@H](CCCNC(=N)N)C(=O)N[C@@H](Cc2c[nH]c3ccccc23)C(=O)O)NC(=O)[C@H]([C@@H](C)O)NC(=O)[C@H](Cc2ccccc2)NC(=O)[C@H]([C@@H](C)CC)NC(=O)[C@H](C(C)C)NC(=O)[C@H](C)NC(=O)[C@H](CCCNC(=N)N)NC1=O [H3 B-acid] | 0.955 | 1.32 | 19.1 | 24 |  | 
CC[C@H](C)[C@@H]1NC(=O)[C@H](Cc2ccccc2)NC(=O)[C@H](CCC(=O)O)NC(=O)[C@H](CCCNC(=N)N)NC(=O)CNC(=O)[C@@H](NC(=O)[C@H](CC(C)C)NC(=O)[C@H](CCCNC(=N)N)NC(=O)[C@@H](NC(=O)CNC(=O)[C@H](Cc2ccc(O)cc2)NC(=O)[C@@H]2CCCN2C(=O)[C@H](C)NC(=O)[C@H](C)NC(=O)[C@@H](N)CCCNC(=N)N)C(C)C)CSSC[C@@H]2NC(=O)[C@@H](NC(=O)[C@H](CO)NC(=O)[C@H](CO)NC(=O)[C@H](CO)NC(=O)[C@H](CC(C)C)NC(=O)CNC(=O)[C@H](C)NC(=O)[C@H](CC(C)C)NC(=O)[C@@H](NC(=O)[C@@H](N)CC(=O)O)C(C)C)CSSC[C@H](NC(=O)CNC(=O)[C@H](Cc3c[nH]c4ccccc34)NC(=O)[C@H](CCCCN)NC2=O)C(=O)N[C@@H](CO)C(=O)N[C@@H](CCCCN)C(=O)N[C@@H](CO)C(=O)N[C@@H](CCC(=O)O)C(=O)N[C@@H]([C@@H](C)CC)C(=O)N[C@@H](CO)C(=O)N[C@@H](CO)C(=O)N[C@@H](CC(C)C)C(=O)N[C@H](C(=O)O)CSSC[C@@H](C(=O)NCC(=O)NCC(=O)N[C@@H](CO)C(=O)N[C@@H](CCCNC(=N)N)C(=O)N[C@@H](Cc2c[nH]c3ccccc23)C(=O)O)NC(=O)[C@H]([C@@H](C)O)NC(=O)[C@H](Cc2ccccc2)NC(=O)[C@H]([C@@H](C)CC)NC(=O)[C@H](C(C)C)NC(=O)[C@H](C)NC(=O)[C@H](CCCNC(=N)N)NC1=O [H3 acid] |  | 1.15 | 8.71 | 18.6 |  | 
Oxytocin: polypeptide hormone |  |  |  |  | only active as a C-terminal amide form | 
angiotensin II: polypeptide hormone |  |  |  |  | active as a C-terminal acid form | 
B1 |  |  |  |  |  | equally active either in acid or amide form
